Measured values published in ChEMBL document CHEMBL5055644, “Cysteine derivatives as acetyl lysine mimics to inhibit zinc-dependent histone deacetylases for treating cancer” (Eur J Med Chem, 2021).

Biological target: Histone deacetylase (Homo sapiens) (UniProt Q13547+O15379+Q9UBN7+Q92769+Q9UQL6+Q8WUI4+Q9BY41+Q96DB2+P56524+Q9UKV0+Q969S8)
Assay: Inhibition of HDAC in human HeLa nuclear extract at 1 uM using Boc-Lys(acetyl)-AMC as fluorogenic substrate measured after 1 hr by flourescence plate reader method relative to control
Format: subcellular
Details: Nucleus

inhibition: 82%
SMILES: O=C(CCCSC[C@H](NS(=O)(=O)c1cccc(F)c1)C(=O)N[C@@H](Cc1c[nH]c2ccccc12)C(=O)NC1CCC1)NO
